Results taken from patent US20220186240A1, “FLAVONE 7-O-METHYLTRANSFERASE GENE AND USE FOR SAME” (Suntory Holdings Limited, priority 2019, published 2022).

Tests used:
[1] = test system: DN134067 (CcFn-7OMT, flavone 7-O-methyltransferase); experiment: Enzyme activity measurement with crude protein solution extract from E. coli expressing DN134067, HPLC of reaction solution; assay type: biochemical, oboushibana (Commelina communis var. hortensis); conditions: for peak detected in the enzyme reaction solution / Enzyme reaction synthesis product: compound as substrate; for peak detected in the enzyme reaction solution: HPLC; for Enzyme reaction synthesis product: 30° C., SAM, ND = no product peak
Source text: With DN134067 as a candidate protein having activity of transferring a methyl group to the hydroxyl group at position 7 of flavone C-glycoside, and using pET15b (Novagen), an E. coli expression vector containing the full-length DN134067 (pET15b-DN134067) was constructed according to the manufacturer's recommended protocol.
Plasmid pET15b-DN134067 was introduced into E. coli BL21 using One Shot BL21(DE3) (Invitrogen), according to the manufacturer's recommended protocol, to obtain E. coli transformants. The E. coli were cultured using an Overnight Express Autoinduction System 1 (Novagen), according to the manufacturer's recommended protocol. The E. coli transformants were cultured at 37° C. (approximately 4 hours) with 2 ml of prepared culture solution, to an OD600 value of 0.5. The E. coli solution was added as a preculturing solution to 50 ml of culture solution, and main culturing was carried out for two nights at 16° C.
The E. coli solution cultured for two nights was centrifuged (3000 rpm, 4° C., 15 minutes), and the collected cells were suspended in sonic buffer (composition: 40 mM KPB (pH7.5), 1 mM dithiothreitol, 50 μM amidinophenylmethanesulfonyl fluoride hydrochloride, […], 2 mM MgCl2, 1 μM S-adenosylmethionine (SAM)). A 5 ml portion of sonic buffer was added for each 1 g of E. coli. The suspended E. coli cells were crushed by ultrasonic treatment and then centrifuged (15,000 rpm, 4° C., 10 minutes), and the supernatant was recovered. The supernatant was used as a crude protein solution extract from E. coli expressing DN134067. An Avanti HP-26XP (rotor: JA-2) (Beckman Coulter) was used for the centrifugation.
After mixing 8 μl of 1 mM isovitexin (dissolved in 50% aqueous acetonitrile containing 0.1% TFA), 20 μl of 10 mM SAM, 20 μl of 10 mM MgCl2 and 10 μl of 1 M KPB (pH 7.5) and adjusting to 58 μl with water, the mixture was kept at 30° C. for 10 minutes, and then 2 μl of the crude protein solution extract from DN134067-expressing E. coli was added and enzyme reaction was carried out (30 minutes at 30° C.). Next, 100 μl of stop buffer (aqueous 90% acetonitrile solution containing 0.1% TFA) was added to stop the enzyme reaction, and the enzyme reaction solution was analyzed by high-performance liquid chromatography (Prominence by Shimadzu Corp.). Detection was at 330 nm using a Shimadzu PDA SPD-M20A as the detector. The column used was a Shim-Pack ODS 150 mm*4.6 mm (Shimadzu Corp.). Elution was performed using solution A (0.1% TFA aqueous solution) and solution B (aqueous 90% acetonitrile solution containing 0.1% TFA). The elution was with a 20-minute linear concentration gradient from a 9:1 mixture to a 8:2 mixture, a 15-minute linear concentration gradient from a 8:2 mixture to a 2:8 mixture and a 5-minute linear concentration gradient from a 2:8 mixture to a 0:10 mixture, followed by elution with a 0:10 mixture for 1 minute. The flow rate was 0.6 ml/min. As a control, the same experiment was carried out using a crude protein solution extract from E. coli in which pET15b vector without the insert had been introduced.
When enzyme reaction was conducted using an anthocyanin (delphinidin 3-glycoside, petunidin 3-glycoside or delphinidin 3,5-diglycoside) as the substrate, the enzyme reaction conditions were 30° C., 15 minutes, and an aqueous 90% acetonitrile solution containing 0.1% TFA and 0.24 N hydrochloric acid was used as the stop buffer. A Shimadzu PDA SPD-M20A detector was used for detection at 520 nm during analysis of the enzyme reaction solution by high-performance liquid chromatography (Prominence (Shimadzu Corp.)). The column used was a Shodex RSpak DE-413 L (Shodex). Elution was performed using solution A (0.1% TFA aqueous solution) and solution B (aqueous 90% acetonitrile solution containing 0.1% TFA). Elution was performed with a 15-minute linear concentration gradient from an 8:2 mixture to a 0:10 mixture, and subsequent elution for 5 minutes with a 0:10 mixture. […]

[2] = Simulation of flavone C-glycoside (isovitexin) copigment effect with anthocyanin, absorption spectra; assay type: physicochemical; conditions: for Absorption maximum of anthocyanin solution with addition of flavone C-glycoside (λmax): pH 4.5, anthocyanin 0.5 mM
Procedure: An anthocyanin and flavone C-glycoside were prepared to simulate the copigment effect of flavone C-glycoside on anthocyanin. The malvin (malvidin 3,5-diglycoside) and isovitexin (apigenin 6-C-glycoside) used for the experiment were purchased from Funakoshi Corp.
The flavone C-glycoside (isovitexin) was added to the anthocyanin (malvin) at 0, 2 and 4-equivalent molar concentrations in a buffering solution at pH 4.5, and the absorption spectra were measured. The anthocyanin concentration was 0.5 mM.
Addition of the flavone C-glycoside increased the absorbance of the anthocyanin solution, shifting the absorption maximum (λmax) toward the long wavelength end with increasing addition of flavone C-glycoside.

[3] = Simulation of flavone C-glycoside (isoorientin, swertisin) copigment effect with malvin, absorption spectra; assay type: physicochemical; conditions: for Absorption maximum of malvin solution with addition of flavone C-glycoside (λmax): flavone C-glycoside at 10-equivalent molar concentration, pH 5.0, malvin 0.5 mM
Procedure: An anthocyanin (malvin) and flavone C-glycoside were prepared to simulate the copigment effect of the flavone C-glycoside on malvin. The malvin (malvidin 3,5-diglycoside) and flavone C-glycosides (isoorientin, swertisin) used in this experiment were purchased from Nacalai Tesque, Inc.
Each flavone C-glycoside (isoorientin or swertisin) was added to the malvin at 10-equivalent molar concentration in a buffering solution at pH 5.0, and the absorption spectra were measured. The malvin concentration was 0.5 mM.
Addition of the flavone C-glycoside increased the absorbance of the malvin solution, shifting the absorption maximum (λmax) toward the long wavelength end. The absorption maximum was shifted further toward the long wavelength end with addition of swertisin than with isoorientin.

Delphinidin 3,5-diglycoside
peak detected in the enzyme reaction solution [1]: no peak was detected in the enzyme reaction solution other than for the substrate

Luteolin 4′-glycoside
peak detected in the enzyme reaction solution [1]: no peak was detected in the enzyme reaction solution other than for the substrate

isovitexin 4′-glycoside [Saponarin]
peak detected in the enzyme reaction solution [1]: no peak was detected in the enzyme reaction solution other than for the substrate

O=c1cc(-c2ccc(O)cc2)oc2cc(O)cc(O)c12 [Apigenin]
peak detected in the enzyme reaction solution [1]: no peak was detected in the enzyme reaction solution other than for the substrate

Petunidin 3-glycoside
peak detected in the enzyme reaction solution [1]: no peak was detected in the enzyme reaction solution other than for the substrate

COc1cc(-c2[o+]c3cc(O)cc(O[C@@H]4O[C@H](CO)[C@@H](O)[C@H](O)[C@H]4O)c3cc2O[C@@H]2O[C@H](CO)[C@@H](O)[C@H](O)[C@H]2O)cc(OC)c1O [Malvin, malvidin 3,5-diglycoside]
Absorption maximum of anthocyanin solution with addition of flavone C-glycoside (λmax) ([2]; 0 equivalent isovitexin): 531.8 nm
Absorption maximum of anthocyanin solution with addition of flavone C-glycoside (λmax) ([2]; 2 equivalents isovitexin): 566.4 nm
Absorption maximum of anthocyanin solution with addition of flavone C-glycoside (λmax) ([2]; 4 equivalents isovitexin): 573.0 nm
Absorption maximum of malvin solution (λmax) ([3]; malvin alone, pH 5.0, 0.5 mM): 529 nm

Delphinidin 3-glycoside
peak detected in the enzyme reaction solution [1]: no peak was detected in the enzyme reaction solution other than for the substrate

Apigenin 4′-glycoside
peak detected in the enzyme reaction solution [1]: no peak was detected in the enzyme reaction solution other than for the substrate

O=c1cc(-c2ccc(O)c(O)c2)oc2cc(O)cc(O)c12 [Luteolin]
peak detected in the enzyme reaction solution [1]: no peak was detected in the enzyme reaction solution other than for the substrate

COc1cc2oc(-c3ccc(O)cc3)cc(=O)c2c(O)c1[C@@H]1O[C@H](CO)[C@@H](O)[C@H](O)[C@H]1O [Swertisin, apigenin 7-methyl-6-C-glycoside]
copigment effect with malvin ([3]; compared with isoorientin, 10 equivalents, pH 5.0): higher copigment effect with malvin
Absorption maximum of malvin solution with addition of flavone C-glycoside (λmax) [3]: 579 nm

O=c1cc(-c2ccc(O)c(O)c2)oc2cc(O)c([C@@H]3O[C@H](CO)[C@@H](O)[C@H](O)[C@H]3O)c(O)c12 [Isoorientin, luteolin 6-C-glycoside]
Absorption maximum of malvin solution with addition of flavone C-glycoside (λmax) [3]: 575 nm
Enzyme reaction synthesis product [1]: Swertiajaponin
peak detected in the enzyme reaction solution [1]: a peak was detected for swertiajaponin

O=c1cc(-c2ccc(O)cc2)oc2cc(O)c([C@@H]3O[C@H](CO)[C@@H](O)[C@H](O)[C@H]3O)c(O)c12 [Isovitexin, apigenin 6-C-glycoside]
copigment effect with malvin ([2]; pH 4.5, malvin 0.5 mM): copigment effect of isovitexin is exhibited with malvin
Enzyme reaction synthesis product [1]: Swertisin
peak detected in the enzyme reaction solution [1]: a peak for swertisin

B1: DN134067: oboushibana-derived flavone 7-O-methyltransferase (SEQ ID NO: 34/35), expressed in E. coli (protein)
chain: MEAQEDNAYMQALELQTGIDMNMTLRAAIELGILETIVGAGEGAKLAAGEISGHLPTANPEAPNMVDRMLRLLAAHNIVTCVVEGGVDGRPECKYGAAPVSKYFTGEGEMSLARKVLLATDMVTFQSWLHLKDSVINGGNAFHTAFNMSLFDKNKVDSRFNNVFNTSMKSVSLFAINKFINTYDGFSDIQVLVDVGGGIGTALYAITSKFPHIKGINFDLPQVISTAQTSYPEMEHVSGDMFASVPKGDAILLKHVLHNWEDESCLKILKTCWNSLPYKGKVIIVESVLPKAPGVSSASKYFTCLDVIMMAHFGAKLRTIEEFKELCNNAGFSSFNATYFHTYHCIMEFTK
modifications: Commelina communis var. hortensis
methyl group-transfer activity ([1]; substrate comparison): most powerful methyl group-transfer activity for isovitexin
